Where two headings read alike, the source gives them in different places.
Assays:
[1] = system: MAO-B; set-up: method as in PMID 27575476, PMID 32087226; details: cited from earlier work
[2] = system: MAO-A; set-up: method as in PMID 27575476, PMID 32087226; details: cited from earlier work
[3] = set-up: method as in PMID 31004693; details: 30 min; mean ± SEM, n = 3; previously published; read-out: DPPH-Scavenging Effect SC50; cited from earlier work
[4] = system: 6-OHDA-treated Neuro-2a cells; test: 6-OHDA-induced neurotoxicity, cell viability (MTT); format: cell-based, murine; details: 6-OHDA 80 µM, p < 0.05
Procedure: (§1) After 24 h of adhesion, Neuro-2a cells (1 × 10^4 cells/well) were treated with polyphenolic compounds at concentrations of 0.01–10 μM for 1 h. Subsequently, 1 mM of PQ, 10 μM rotenone or 80 μM of 6-OHDA (Sigma-Aldrich, St. Louis, MO, USA) were added. We used MTT assay to determine the percentage of living cells (cell viability) after 24 h of incubation. Cells incubated without inductors or with inductors were used as positive and negative control, respectively. The results are presented as percentages of the positive control value.

[5] = Cytotoxicity, MTT assay; format: cell-based, murine; details: mouse, Neuro-2a neuroblastoma cells, read-out: Cytotoxic activity EC50
Procedure: The murine neuroblastoma cell line Neuro-2a (CCL-131) was purchased from American Type Culture Collection (ATCC®) (Manassas, VA, USA). Cells were cultured in Dulbecco’s Modified Eagle Medium (Biolot, St. Petersburg, Russia). The medium contained 10% fetal bovine serum (Biolot, St. Petersburg, Russia) and 1% penicillin/streptomycin (Biolot, St. Petersburg, Russia). Cells were incubated at 37 °C in a humidified atmosphere containing 5% (v/v) CO2.
Stock solutions of polyphenolic compounds were prepared in DMSO at a concentration of 10 mM. […]
We incubated Neuro-2a cells (1 × 10^4 cells/well) at 37 °C in a CO2 incubator for 24 h until they formed an adherent monolayer. Then, 20 μL of the tested solution was loaded onto the cells and incubated for 24 h. After incubation, the medium containing the polyphenolic test compounds was replaced by 100 μL of fresh medium. Then, we added 10 μL of MTT (3-(4,5-dimethylthiazol-2-yl)-2,5-diphenyltetrazolium bromide) (Sigma-Aldrich, St. Louis, MO, USA) stock solution (5 mg/mL) to each well and incubated the microplate for 4 h. Then, 100 μL of SDS-HCl solution (1 g SDS/10 mL dH2O/17 μL 6 M HCl) was added to each well, followed by incubation for 18 h. We measured the absorbance of the converted dye formazan on a Multiskan FC microplate photometer (Thermo Scientific, Waltham, MA, USA) at a wavelength of 570 nm. We performed all experiments in triplicate and expressed the cytotoxic activity as percent of living cells.

[6] = system: 6-OHDA-treated Neuro-2a cells; test: ROS level in 6-OHDA-treated cells (H2DCF-DA); format: cell-based, murine; details: 6-OHDA 80 µM; for Effect on ROS levels in 6-OHDA-treated cells: 1 h, H2DCF-DA
Procedure: (§2) After 24 h of adhesion, Neuro-2a cells (1 × 10^4 cells/well) were incubated with compounds (0.01–10 µM) for 1 h. Then, we added rotenone (10 μM), 6-OHDA (80 μM), or PQ (1 mM) to each well and incubated cells for 1 h, 1 h, or 3 h, respectively. To evaluate the level of intracellular ROS, we added 20 µL of 2,7-dichlorodihydrofluorescein diacetate solution ([…], H2DCF-DA, Molecular Probes, Eugene, OR, USA) to each well, so that the final concentration was 10 µM, and incubated the microplate at 37 °C for an additional 30 min. Quercetin was used as a reference compound.

[7] = set-up: method as in PMID 31004693; details: mean ± SEM, n = 3; previously published; cited from earlier work
[8] = system: PQ-treated Neuro-2a cells; test: PQ-induced neurotoxicity, cell viability (MTT); format: cell-based, murine; details: PQ 1 mM; for Effect on percentage of living cells after treatment with PQ: compounds 0.01–10 μM, 1 h pre-treatment, MTT after 24 h; for Increase in percentage of living cells after treatment with PQ: MTT
Procedure: as §1

[9] = system: PQ-treated Neuro-2a cells; test: Mitochondrial membrane potential (TMRM) in PQ-treated cells; format: cell-based, murine; details: for Increase in mitochondrial membrane potential: compound 10 µM, PQ-treated Neuro-2a, TMRM
Procedure: The cells were incubated for 1 h in a 96-well plate (1 × 10^4 cells/well) with polyphenolic compounds (1 and 10 µM). Then, PQ (500 µM) was added, and the cell suspension was incubated for 1 h. Cells incubated without PQ and compounds were used as positive control, and cells with PQ alone were used as negative control. We added the tetramethylrhodamine methyl (TMRM) (Sigma-Aldrich, St. Louis, MO, USA) solution (500 nM) to each well, and incubated cells for 30 min at 37 °C. After the incubation, we measured the intensity of fluorescence with a PHERAstar FSplate reader (BMG Labtech, Ortenberg, Germany) at λex = 540 nm and λem = 590 nm. We processed the data using MARS Data Analysis v3.01R2 (BMG Labtech, Ortenberg, Germany) and presented results as percentages of the positive control value.

[10] = DPPH radical-scavenging effect; details: 30 min; DPPH• 10^−4 M in MeOH; mean ± SEM, n = 3; read-out: DPPH-Scavenging Effect SC50
Procedure: The 2,2-diphenyl-1-picrylhydrazyl (DPPH^•) radical-scavenging effect of polyphenolic compounds 7–11 was determined as described in [24]. Polyphenolic compounds 7, 8, 9, 10, and 11 were added to DPPH^• solution in MeOH (10^−4 M) at concentrations from 6 to 34 µM. The reacting mixture was kept in the dark for 30 min at room temperature. Then, we measured the absorbance at 517 nm using a Shimadzu UV 1240 spectrophotometer (Shimadzu, Kyoto, Japan). Equation (1) was used to calculate the DPPH^• radical-scavenging effect (%):(1) DPPH^• scavenging effect,%=A0−Ax/A0 where A0 is the absorbance of DPPH^• solution of a blank sample (without polyphenolic compounds); AX is the absorbance of DPPH^• solution in the presence of different concentrations of polyphenolic compounds.
Quercetin was used as a reference compound. All experiments were performed in triplicate. We calculated the half-maximal scavenging concentration (SC50) for polyphenolic compounds by plotting the DPPH^• scavenging effect (%) against the concentrations of polyphenolic compounds. SC50 values are given as the mean value ± SEM.

[11] = system: rotenone-treated Neuro-2a cells; test: ROS level in rotenone-treated cells (H2DCF-DA); format: cell-based, murine; details: rotenone 10 µM, 1 h
Procedure: as §2

[12] = system: rotenone-treated Neuro-2a cells; test: Rotenone-induced neurotoxicity, cell viability (MTT); format: cell-based, murine; details: for Increase in percentage of living cells after treatment with rotenone compared to rotenone-treated cells: rotenone 10 µM, MTT, p < 0.05
Procedure: as §1

[13] = Ferric reducing antioxidant power (FRAP) assay; details: 4 min, absorbance 595 nm; mean ± SEM, n = 3
Procedure: We performed the FRAP assay as described in [29]. We prepared the FRAP reagent by mixing 2.5 mL of TPTZ (2,4,6-tris(2-pyridyl)-s-triazine) solution (10 mM) in 40 mM HCl and 25 mL of FeCl3 solution (20 mM) in acetate buffer solution (300 mM, pH 3.6). Polyphenolics 7–11 were added to 3 mL of FRAP reagent at concentrations from 6 to 34 µM. The mixture was kept in the dark at room temperature for 4 min. Then, we measured the absorbance at 595 nm using a Shimadzu UV 1240 spectrophotometer. Equation (2) was used to calculate the FRAP values for polyphenolic compounds 7–11:(2) FRAP=CFe/Cx where CFe is the concentration of Fe^2+ (µM) formed in the reaction; CX is the concentration of polyphenolic compounds in the reacting mixture.
The concentration of Fe^2+ (µM) formed in the reaction was determined using the calibration curve obtained for different concentrations of FeSO4·7H2O.

[14] = system: α-synuclein; set-up: method as in PMID 32585871; details: cited from earlier work
[15] = system: 6-OHDA-exposed worms; set-up: method as in PMID 32585871; details: cited from earlier work
[16] = system: 5-lipoxygenase; set-up: method as in PMID 28506902; details: cited from earlier work
[17] = system: RAW 264.7 macrophages; set-up: method as in PMID 25592708; details: cited from earlier work

Molecule	Inhibition of MAO-B [1]	Inhibition of MAO-A [2]	EC50 [3] [µM]	Increase in percentage of living cells after 6-OHDA treatment versus 6-OHDA-treated cells [4] [%]	EC50 at 24 h [5] [µM]	Effect on ROS levels in 6-OHDA-treated cells [6]	FRAP [7]	Effect on percentage of living cells after treatment with PQ [8]	other results
COc1ccc2c(c1O)OC[C@H]1c3cc4c(cc3O[C@@H]21)OCO4 [(–)-4-hydroxy-3-methoxy-8,9-methylenedioxypterocarpan]	effectively inhibit	effectively inhibit							
CC(C)=CCC[C@@]1(C)C=Cc2c(c(O)cc3c2O[C@H]2c4ccc(O)cc4OC[C@@H]32)O1 [Compound 2, (6aR,11aR,3′S)-6a,11a-dihydrolespedezol A3]			25 ± 2.2	8.7	75	significantly decreased	1.31 ± 0.02 mol (Fe^2+)/mol (polyphenolic compound X)	did not exhibit any effect	Decrease of ROS level compared to 6-OHDA-treated cells [6]: 4.5 times
CC(C)=CCC[C@]1(C)C=Cc2c(c(O)cc3c2O[C@H]2c4ccc(O)cc4OC[C@@H]32)O1 [Compound 3, 6aR,11aR,3′R-6a,11a-dihydrolespedezol A3]			23.7 ± 2.1	12.9	44	significantly decreased	1.60 ± 0.08 mol (Fe^2+)/mol (polyphenolic compound X)	significantly increased	Decrease of ROS level compared to 6-OHDA-treated cells [6]: 4.5 times; Increase in percentage of living cells after treatment with PQ ([8]; compound 10 μM): 8%; Increase in mitochondrial membrane potential [9]: 16%
CC(C)=CCC/C(C)=C/Cc1c(O)c(O)cc(C(=O)C(=O)c2ccc(O)cc2O)c1O [Compound 5, bicoloketone]			26.1 ± 3		100		0.86 ± 0.04 mol (Fe^2+)/mol (polyphenolic compound X)	significantly increased	Increase in percentage of living cells after treatment with PQ ([8]; compound 1 and 10 μM): 8–10%; Increase in mitochondrial membrane potential [9]: 23%
CC(C)=CCC[C@@]1(C)C=Cc2c(c(O)cc3c4c(oc23)-c2ccc(O)cc2OC4)O1 [Compound 9, lespedezol A3]				31.4	75	significantly decreased			EC50 [10]: 13.5 ± 1.2 µM; Effect on ROS levels in rotenone-treated cells [11]: did not significantly decrease; Increase in percentage of living cells after treatment with rotenone compared to rotenone-treated cells [12]: 10.4%
CC(C)=CCC[C@@]1(C)C=Cc2c(c(O)cc3c2oc2c4ccc(O)cc4oc(=O)c32)O1 [Compound 10, lespebicoumestan A]				10.9	44	significantly decreased			FRAP [13]: 1.75 ± 0.20 mol (Fe^2+)/mol (polyphenolic compound X); EC50 [10]: 22.7 ± 3.5 µM; Effect on ROS levels in rotenone-treated cells [11]: did not significantly decrease; Increase in percentage of living cells after treatment with rotenone compared to rotenone-treated cells [12]: 13.2%
C[n+]1ccc(-c2cc[n+](C)cc2)cc1 [PQ, paraquat, reference compound]									Decrease in TMRM fluorescence ([9]; 1 h exposure of Neuro-2a cells with PQ alone): 23%
Oc1ccc2c(c1)OC[C@H]1c3cc4c(cc3O[C@@H]21)OCO4 [maackiain]	selectively inhibited	did not effectively inhibit							Accumulation of α-synuclein [14]: diminish; Dopaminergic neuron damage [15]: significantly reduce; Inhibition of 5-lipoxygenase [16]: inhibited; LPS-induced nitric oxide production [17]: inhibitory effects
C=C(C)[C@H]1Cc2c(ccc3c2O[C@@H]2COc4cc(OC)c(OC)cc4[C@@H]2C3=O)O1 [rotenone, reference compound]									Percentage of living Neuro-2a cells compared to the control ([12]; rotenone 10 µM alone): 68%
medicarpin	selectively inhibited	did not effectively inhibit							

Source: publication PMC9025851, “Polyphenolic Compounds from Lespedeza bicolor Protect Neuronal Cells from Oxidative Stress” (Antioxidants, 2022)
